Measured values: paper PMC6195125 (European journal of medicinal chemistry, 2018)
Read-outs that look alike come from different tables or passages of the source.

What was measured:
mammalian cell = conditions: read-out: Cytotoxicity IC50; cited from earlier work
P. falciparum = conditions: read-out: P. falciparum IC50; in vitro; cited from earlier work
HepG2-A16-CD81EGFP cells = assay: HepG2 cytotoxicity bioluminescence assay; assay type: cell-based, human; conditions: read-out: HepG2 IC50
P. falciparum 3D7 = assay type: cell-based; conditions: Plasmodium falciparum, 3D7, read-out: P.falciparum IC50 Pf3D7
P. falciparum Dd2 = assay: microbe, parasite or virus in culture; assay type: cell-based; conditions: Plasmodium falciparum, DD2, read-out: P.falciparum IC50 PfDd2
[1] = test system: P. berghei exo-erythrocytic forms (EEF); assay type: cell-based, Plasmodium berghei; conditions: read-out: Pb EEF IC50; P. berghei-Luc in HepG2-A16-CD81EGFP cells, 48 h
[2] = test system: P. falciparum stage V gametocytes; assay: ATP bioluminescence assay, mature gametocytes; assay type: cell-based, Plasmodium falciparum; conditions: read-out: Pf stage V gametocytes IC50
[3] = test system: P. falciparum NF54 late stage gametocytes (IV-V); assay: Imaging-based viability assay, late stage gametocytes; assay type: cell-based; conditions: Plasmodium falciparum, NF54, read-out: Pf LSG inhibition at 40 μM
[4] = test system: normal human neonatal foreskin fibroblasts (NFFs); assay: Cytotoxicity against neonatal foreskin fibroblasts; assay type: cell-based; conditions: Fibroblast, read-out: NFF IC50

CCC(=O)CCCCC[C@@H]1NC(=O)[C@H]2CCCCN2C(=O)[C@H]([C@@H](C)CC)NC(=O)[C@H](Cc2cn(OC)c3ccccc23)NC1=O [Apicidin]
IC50 (mammalian cell): 50 to 100 nM
IC50 (P. falciparum): 200 nM

O=C1C(O)=C([C@H]2CC[C@H](c3ccc(Cl)cc3)CC2)C(=O)c2ccccc21 [ATQ, Atovaquone]
IC50 (HepG2-A16-CD81EGFP cells; Homo sapiens, HepG2, 48 h): > 0.5 µM

CCN(CC)CCCC(C)Nc1ccnc2cc(Cl)ccc12 (centres unmarked) [CQ, chloroquine]
IC50 (P. falciparum 3D7): 11 nM
IC50 (P. falciparum Dd2): 49 nM

Methyl 4-((3,5-dimethyl-N-(2-oxo-2-(p-tolylamino)ethyl)benzamido)methyl)benzoate [Compound 1m]
IC50 [1]: 5.55 µM
IC50 ([2]; ATP assay, 48 h incubation): 10.1 ± 3.72 µM
IC50 (HepG2-A16-CD81EGFP cells; Table 4): 21.4 µM
IC50 (HepG2-A16-CD81EGFP cells; Table 7 and text, 48 h): 21.4 µM

CC(/C=C/C(=O)NO)=C\[C@@H](C)C(=O)c1ccc(N(C)C)cc1 [Trichostatin A (TSA), Trichostatin A]
IC50 (P. falciparum): 8 to 11 nM

CN(C)c1ccc2nc3ccc(N(C)C)cc3[s+]c2c1 [methylene blue]
IC50 ([2]; Plasmodium falciparum, 48 h): 210 µM

O=C(CN(Cc1ccc(C(=O)NO)cc1)C(=O)c1cccc2ccccc12)NC1CCCCC1 [Compound 1g]
inhibition at 40 µM [3]: 97%

O=C(/C=C/c1cccc(S(=O)(=O)Nc2ccccc2)c1)NO [Belinostat]
IC50 (mammalian cell): 1420 to 2370 nM
IC50 (P. falciparum): 60 to 130 nM

Cc1ccc(NC(=O)CN(Cc2ccc(C(=O)NO)cc2)C(=O)c2cccc3ccccc23)cc1 [Compound 1k]
IC50 [4]: > 10 µM

Cc1[nH]c2ccccc2c1CCNCc1ccc(/C=C/C(=O)NO)cc1 [Panobinostat]
IC50 (mammalian cell): 70 to 180 nM
IC50 (P. falciparum): 10 to 30 nM
